Experiments:
Type in all cases: cell-based
[1] = system: MDA-MB-468 (estrogen receptor-α-negative) breast cancer cell line; assay: MTT cytotoxicity test, MDA-MB-468; settings: 24 h, mean ± SD, read-out: IC50 determined by MTT cytotoxicity test
Method: (§1) 3-(4,5-Dimethylthiazol-2-yl)-2,5-diphenyltetrazolium bromide (MTT) was from Serva Electrophoresis (Heidelberg, Germany). Monoclonal mouse anti-bromodeoxyuridine (BrdU) intibody was obtained from DakoCytomation (Glostrup, Denmark). Calcein AM was obtained from PAA Laboratories GmbH (Pasching, Austria). […] All other cells were cultured in DMEM medium (Sigma, MO, USA). All used media were supplemented with 10% heat-inactivated fetal bovine serum, 2 mmol/L L-glutamine, 1% penicillin/streptomycin. The cell lines were maintained under standard cell culture conditions at 37° C. and 5% CO2 in a humid environment. Cells were subcultured twice or three times a week using the standard trypsinization procedure (Sigma, USA).
(§2) Cell viability in this case was assessed by 3-(4,5-dimethylthiozol-2-yl)-2,5-diphenyltetrazolium bromide (MTT) to determine IC50 concentrations of studied agents as described previously. […] The cells (70% to 80% confluent) were treated with brassinosteroids for 6, 12 and 24 h in cell culture medium. Cells that were used as controls were incubated with the maximum used amount of steroid diluent DMSO only. […] The absorbance was read using an ELISA reader Labsystem Multiscan RC at 570 nm. The viability of treated cells was related to the viability of control cells that represented 100% viability. […]

[2] = system: LNCaP (androgen-sensitive) prostate cancer cell line; assay: MTT cytotoxicity test, LNCaP; settings: 24 h, mean ± SD, read-out: IC50 determined by MTT cytotoxicity test
Method: as §1, §2

[3] = system: LNCaP cells; assay: BrdU incorporation assay, LNCaP
Method: To analyze if the inhibition in cell viability was due to decreased cell proliferation, we measured DNA synthesis in the presence of BRs. The effect of brassinosteroids 9 or 6 on cell proliferation and DNA replication of the cancer cells was measured by BrdU incorporation assay. This immunostaining was based on nuclear incorporation of bromodeoxyuridine (BrdU) into DNA in place of thymidine during the S-phase of cell cycle detected by anti-specific-BrdU antibody following membrane permeabilization as described previously (Gratzner, Science. 1982, 218, 474-475). […] The BrdU reagent (0.1 mM; Sigma, MO, USA) was added in culture medium with cells for 4 h in a CO2 incubator at 37° C. After incubation the cells were washed three times with PBS and fixed with cold acetone-methanol (1:1, v/v) for 10 min. The cells were denaturated by HCl (1:5; Lachema, Czech Republic) and incubated with anti-specific-BrdU antibody (diluted 1:100 in PBS; clone Bu20a, DakoCytomation, Denmark) for 60 min in the dark. The cells were then washed three times in PBS (10 mM, pH 7.4) and incubated with goat anti-mouse fluorescein isothiocyanate (FITC)-labeled secondary antibody (Sigma, MO, USA) for 60 min in the dark. The cells were then washed three times in PBS and incubated with DAPI (50 μg/mL; Sigma, MO, USA) for 10 min in the dark. The coverslips with cells were washed in deionized water and mounted on glass slides, using the hydrophilic medium Mowiol (Calbiochem, Calif., USA) in glycerol-PBS (1:3, v/v) for fluorescence. Cells were visualized using microscopy and those incorporating BrdU (S phase cells) were counted in at least 25 fields and compared with the total number of all cells.

[4] = system: MDA-MB-468 cells; assay: Western blot of cell cycle and apoptosis related proteins, MDA-MB-468; settings: for expression of apoptosis related proteins (Bcl-2 family, caspase-3 activation) (Western blot) / p21Waf1/Cip1 expression (Western blot) / p27Kip1 expression (Western blot): IC50 for 6, 12, 24 h vs untreated control; for retinoblastoma protein (Rb) expression, phosphorylated and dephosphorylated forms (Western blot): vs untreated control
Method: The cells were seeded in a density 1.6×10^4 cells/cm^2 (LNCaP), 1.4×10^4 cells/cm^2 (DU-145, MDA-MB-468 and MCF-7) using culture medium in 100-mm culture Petri dishes. After reaching of 70-80% confluence, the cells were treated with tested compounds 9 in concentration IC50 that were evaluated by MTT analysis described above. DMSO was used as a vehicle for controls. After 6, 12 and 24 h treatment, the cells were washed with cold PBS and scraped in ice-cold protein extract ion buffer (50 mM HEPES, pH 7.5; 150 mM NaCl; 1 mM EDTA; 2.5 mM EGTA; 10% glycerol; 0.1% Tween 20) with protease and phosphatase inhibitors (25 μL/mL phenylmethanesulphonyl fluoride; 2.5 μL/mL leupeptin; 0.1 mM Na3VO4; 2.5 μL/mL aprotinin; 10 mM β-glycerol-phosphate; 1 mM dithiothreitol). The lysates were collected into microfuge tube and incubated on ice for 1 h. Cells were incubated 60 min at 4° C. under time by time shaking in protein extraction buffer. After centrifugation at 45 000×g for 30 min at 4° C., supernatant was collected, aliquoted, and stored at −80° C. The protein content in the lysates was measured by a Bredford assay (Bio-Rad Laboratories, Hercules, Calif., USA) according to the manufacture's protocol.
For Western blot analysis, equal aliquots of proteins (15-30 μg/well) were loaded on 10% or 12% SDS-PAGE gels and transferred onto nitrocellulose membranes (Amersham Biosciences, Vienna, Austria) by semi-dry electrophoretic transfer. Coloured marker (Rainbow™, Amersham Biosciences, Vienna, Austria) was used as a protein molecular weight standard. The non-specific binding sites were blocked by incubating the blot with 5% (w/v) non-fat dry milk in PBS for 2 h. The blot was incubated overnight in 4° C. with appropriate primary antibody that detects the protein epitope of interest and finally washed in PBS with 0.1% Tween 20 for 1 h. The blot was incubated with the diluted secondary goat anti-mouse IgG-horseradish peroxidase conjugated antibody (dilution 1:6000, Santa Cruz Biotechnology, Santa Cruz, Calif., USA) or goat anti-rabbit IgG-horseradish peroxidase conjugated antibody (dilution 1:2000, DakoCytomation, Glostrup, Denmark) for 45 min in 4° C. The membrane was washed in PBS with 0.1% Tween 20 for 1 h. The proteins were detected using a chemiluminescence detection system (Amersham Biosciences, Vienna, Austria) according to the protocol provided by the manufacturer. Equality of loaded proteins was confirmed by Ponceau S membrane staining (Sigma, St. Louis, Mo., USA) and by detection of anti-tubulin-α or anti-mcm-7 antibodies. The experiments were repeated three times. The protein expressions in treated cells were compared to untreated controls.
Western blot analysis was used to detect changes in apoptosis related protein expression in breast and prostate cancer cell lines. […] This decreased expression of Bid can indicate a cleavage of the protein after treatment by BRs. In DU-145 cell line, expression of pro-apoptotic proteins Bax and Bid was unchanged. […] On the other hand, caspase cleavage was not found in DU-145 cells. Poly-(ADP-ribose) polymerase (PARP) positive expression in controls of prostate cancer cell lines was observed but brassinosteroids had no effect on its expression nor on its degradation within the period 6/12/24 h (FIG. 6B).

[5] = treated at IC50 for 6 h, control 44 ± 6.0
[6] = treated at IC50 for 12 h, control 52 ± 7.6
[7] = treated at IC50 for 24 h, control 59 ± 8.0

Row | SMILES | IC50 [1] [µM] | IC50 [2] [µM] | percentage of proliferating BrdU positive cells [3, 5] [%] | percentage of proliferating BrdU positive cells [3, 6] [%] | percentage of proliferating BrdU positive cells [3, 7] [%] | expression of apoptosis related proteins (Bcl-2 family, caspase-3 activation) (Western blot) [4] | p21Waf1/Cip1 expression (Western blot) [4] | p27Kip1 expression (Western blot) [4] | retinoblastoma protein (Rb) expression, phosphorylated and dephosphorylated forms (Western blot) [4] | cyclin D1 expression (Western blot) ([4]; 6/12/24 h vs untreated control)
1 | CC[C@@H](C(C)C)[C@@H](O)[C@H](O)[C@@H](C)[C@H]1CC[C@H]2[C@@H]3CC(=O)[C@H]4C[C@H](O)[C@H](O)C[C@]4(C)[C@H]3CC[C@]12C [Brassinosteroid 9, 28-Homocastasterone] | 65 ± 2.8 | 45 ± 2.3 | 25 ± 3.0 | 28 ± 4.6 | 27 ± 2.1 | no significant changes in expression of Bcl-2 family protein nor caspase-3 activation | no significant changes | no significant changes | decreased | –
2 | CC(C)[C@@H](C)[C@@H](O)[C@H](O)[C@@H](C)[C@H]1CC[C@H]2[C@@H]3COC(=O)[C@H]4C[C@H](O)[C@H](O)C[C@]4(C)[C@H]3CC[C@]12C [Brassinosteroid 6, 24-Epibrassinolide] | 68 ± 2.5 | 60 ± 3.1 | 36 ± 5.5 | 31 ± 2.0 | 29 ± 4.7 | no significant changes in expression of Bcl-2 family protein nor caspase-3 activation | significantly increased after 12 and 24 h | decreased in all time points | decreased | decreased expression of cyclin D1

From US20100204460A1, “NATURAL BRASSINOSTEROIDS FOR USE FOR TREATING HYPERPROLIFERATION, TREATING PROLIFERATIVE DISEASES AND REDUCING ADVERSE EFFECTS OF STEROID DYSFUNCTION IN MAMMALS, PHARMACEUTICAL COMPOSITION AND ITS USE” (priority 2007, published 2010)
